Measurements as given in ChEMBL document CHEMBL5154899, “Spiropyrimidinetrione DNA Gyrase Inhibitors with Potent and Selective Antituberculosis Activity” (J Med Chem, 2022).
pIC50: −log10 of the molar value. ≈ marks a conversion by molar mass, not a printed value.

Key:
[1] = target: DNA gyrase subunit A/DNA gyrase subunit B (Mycobacterium tuberculosis (strain ATCC 25618 / H37Rv), UniProt P9WG45+P9WG47); test: Inhibition of Mycobacterium tuberculosis H37Rv DNA gyrase
DNA gyrase = DNA gyrase (Staphylococcus aureus, UniProt P0A0K8+P20831)
DNA gyrase, sequence (P0A0K8 whole entry): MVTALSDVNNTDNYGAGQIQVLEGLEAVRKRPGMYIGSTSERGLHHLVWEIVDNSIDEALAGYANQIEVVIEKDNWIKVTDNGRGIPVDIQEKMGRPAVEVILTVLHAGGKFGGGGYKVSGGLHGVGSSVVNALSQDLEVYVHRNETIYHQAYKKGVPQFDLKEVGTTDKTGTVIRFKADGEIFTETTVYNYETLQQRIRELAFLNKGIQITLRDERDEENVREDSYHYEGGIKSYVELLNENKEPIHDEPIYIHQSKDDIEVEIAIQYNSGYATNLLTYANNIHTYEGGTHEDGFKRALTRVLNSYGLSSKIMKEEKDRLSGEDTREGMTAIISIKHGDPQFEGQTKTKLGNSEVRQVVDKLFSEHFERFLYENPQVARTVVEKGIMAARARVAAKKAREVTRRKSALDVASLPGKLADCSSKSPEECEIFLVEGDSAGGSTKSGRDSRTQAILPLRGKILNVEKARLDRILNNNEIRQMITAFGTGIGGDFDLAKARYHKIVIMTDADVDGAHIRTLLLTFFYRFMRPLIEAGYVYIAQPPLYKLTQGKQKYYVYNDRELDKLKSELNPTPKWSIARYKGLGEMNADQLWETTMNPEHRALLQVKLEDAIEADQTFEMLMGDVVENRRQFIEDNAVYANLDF
DNA gyrase, sequence (P20831 whole entry): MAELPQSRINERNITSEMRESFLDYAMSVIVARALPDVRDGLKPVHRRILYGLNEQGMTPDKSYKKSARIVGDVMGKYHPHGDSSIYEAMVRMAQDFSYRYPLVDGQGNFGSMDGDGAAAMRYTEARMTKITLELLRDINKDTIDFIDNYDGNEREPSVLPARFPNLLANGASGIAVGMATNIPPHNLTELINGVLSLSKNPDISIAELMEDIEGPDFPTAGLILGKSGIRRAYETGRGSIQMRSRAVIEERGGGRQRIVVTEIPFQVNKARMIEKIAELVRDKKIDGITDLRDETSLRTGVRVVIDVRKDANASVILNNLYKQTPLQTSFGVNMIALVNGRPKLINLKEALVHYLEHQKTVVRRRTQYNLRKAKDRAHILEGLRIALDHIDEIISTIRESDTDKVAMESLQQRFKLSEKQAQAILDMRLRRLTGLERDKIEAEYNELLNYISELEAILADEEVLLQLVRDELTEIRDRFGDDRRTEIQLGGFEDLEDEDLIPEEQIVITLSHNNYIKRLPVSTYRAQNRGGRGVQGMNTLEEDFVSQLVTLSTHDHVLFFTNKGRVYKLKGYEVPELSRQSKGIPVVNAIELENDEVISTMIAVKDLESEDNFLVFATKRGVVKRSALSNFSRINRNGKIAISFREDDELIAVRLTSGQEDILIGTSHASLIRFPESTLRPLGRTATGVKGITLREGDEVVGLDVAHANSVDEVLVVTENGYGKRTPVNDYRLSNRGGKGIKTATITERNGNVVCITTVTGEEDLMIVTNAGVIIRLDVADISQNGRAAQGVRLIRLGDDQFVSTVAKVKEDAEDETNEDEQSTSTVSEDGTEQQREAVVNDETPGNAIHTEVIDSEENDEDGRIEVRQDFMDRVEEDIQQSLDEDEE

[2] = tested on: Mycobacterium tuberculosis; test: microbe, parasite or virus in culture; settings: H37Rv, 192 h
Description: Antibacterial activity against Mycobacterium tuberculosis H37Rv assessed as inhibition of bacterial growth measured after 8 days by Alamar blue reagent based broth microdilution method

Escherichia coli = test: microbe, parasite or virus in culture; settings: ATTC 25922, 192 h
[3] = tested on: Mycobacterium tuberculosis; test: microbe, parasite or virus in culture; settings: H37Rv, 264 h
Description: Antibacterial activity against wild type Mycobacterium tuberculosis H37Rv assessed as inhibition of bacterial growth incubated for 11 days

[4] = tested on: Mycobacterium tuberculosis; test: microbe, parasite or virus in culture; settings: H37Rv, 264 h; remark: listed apart in the source
Description: Antibacterial activity against Mycobacterium tuberculosis H37Rv gyrA -FDASTetON-1 hypomorph assessed as inhibition of bacterial growth incubated for 11 days

Staphylococcus aureus = test: microbe, parasite or virus in culture; settings: ATTC 25923, 192 h

DNA gyrase subunit A/DNA gyrase subunit B, sequence (P9WG45 whole entry): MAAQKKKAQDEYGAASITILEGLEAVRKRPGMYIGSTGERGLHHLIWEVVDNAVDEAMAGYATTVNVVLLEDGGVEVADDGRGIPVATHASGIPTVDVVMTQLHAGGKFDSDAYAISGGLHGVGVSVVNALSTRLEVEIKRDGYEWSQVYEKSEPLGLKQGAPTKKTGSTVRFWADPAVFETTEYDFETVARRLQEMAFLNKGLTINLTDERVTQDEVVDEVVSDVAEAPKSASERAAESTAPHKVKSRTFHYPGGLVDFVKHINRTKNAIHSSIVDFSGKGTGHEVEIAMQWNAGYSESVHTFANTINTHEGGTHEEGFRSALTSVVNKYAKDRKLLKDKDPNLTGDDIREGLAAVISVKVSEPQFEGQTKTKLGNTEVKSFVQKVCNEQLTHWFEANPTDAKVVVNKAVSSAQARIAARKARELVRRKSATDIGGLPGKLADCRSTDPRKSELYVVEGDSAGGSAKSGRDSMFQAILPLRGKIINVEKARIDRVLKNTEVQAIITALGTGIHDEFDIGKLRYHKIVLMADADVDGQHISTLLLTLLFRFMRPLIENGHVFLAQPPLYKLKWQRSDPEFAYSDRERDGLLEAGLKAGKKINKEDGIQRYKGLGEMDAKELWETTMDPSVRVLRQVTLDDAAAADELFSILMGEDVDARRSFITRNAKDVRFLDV
DNA gyrase subunit A/DNA gyrase subunit B, sequence (P9WG47 whole entry): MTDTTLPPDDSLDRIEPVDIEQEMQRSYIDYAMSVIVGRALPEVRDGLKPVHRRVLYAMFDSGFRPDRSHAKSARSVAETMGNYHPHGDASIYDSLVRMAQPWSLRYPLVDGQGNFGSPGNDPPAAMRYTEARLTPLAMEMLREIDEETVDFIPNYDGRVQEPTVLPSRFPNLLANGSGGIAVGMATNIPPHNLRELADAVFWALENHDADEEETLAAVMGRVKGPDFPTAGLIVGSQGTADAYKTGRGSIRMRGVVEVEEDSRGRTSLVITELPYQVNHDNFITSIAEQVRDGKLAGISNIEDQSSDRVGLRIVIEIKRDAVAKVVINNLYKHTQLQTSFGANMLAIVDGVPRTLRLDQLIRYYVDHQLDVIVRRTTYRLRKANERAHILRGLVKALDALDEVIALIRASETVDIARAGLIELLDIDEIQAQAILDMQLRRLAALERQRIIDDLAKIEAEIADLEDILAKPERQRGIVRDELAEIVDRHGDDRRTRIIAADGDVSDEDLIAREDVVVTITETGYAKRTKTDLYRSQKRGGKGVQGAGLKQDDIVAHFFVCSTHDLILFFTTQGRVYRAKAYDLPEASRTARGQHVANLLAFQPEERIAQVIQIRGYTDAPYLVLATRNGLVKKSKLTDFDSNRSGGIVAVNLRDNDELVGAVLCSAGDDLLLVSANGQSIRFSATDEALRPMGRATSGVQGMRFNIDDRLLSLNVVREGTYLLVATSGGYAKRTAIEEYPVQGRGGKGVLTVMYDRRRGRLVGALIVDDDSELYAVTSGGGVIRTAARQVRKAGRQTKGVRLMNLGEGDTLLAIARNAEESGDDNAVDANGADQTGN

Structure (SMILES)	MIC [2] [µM]	MIC (Escherichia coli) [µM]	MIC (Staphylococcus aureus) [µM]	also measured
C[C@@H]1CN2c3c(cc4c(-n5cncn5)noc4c3F)CC3(C(=O)NC(=O)NC3=O)[C@H]2[C@H](C)O1	0.24 (≈ 0.109 µg/mL)	2 (≈ 0.911 µg/mL)	–	pIC50 [1]: 4.74; pIC50 (DNA gyrase): 5.77; MIC50 [3]: 1.8 µM (≈ 0.82 µg/mL); MIC99 [3]: 3.8 µM (≈ 1.73 µg/mL); MIC50 [4]: 0.26 µM (≈ 0.118 µg/mL); MIC99 [4]: 0.65 µM (≈ 0.296 µg/mL)
C[C@@H]1CN2c3c(cc4c(-n5cncn5)noc4c3F)CC3(C(=O)NC(=O)NC3=O)[C@H]2[C@H](C)N1C#N	0.98 (≈ 0.47 µg/mL)	63 (≈ 30.2 µg/mL)	16 (≈ 7.67 µg/mL)	–
C[C@@H]1CN2c3c(cc4c(OCC[C@@H]5CCC(=O)N5)noc4c3F)CC3(C(=O)NC(=O)NC3=O)[C@H]2[C@H](C)O1	3.9 (≈ 2.01 µg/mL)	> 125	31 (≈ 16 µg/mL)	–
CN[C@H]1CCN(c2noc3c(F)c4c(cc23)CC2(C(=O)NC(=O)NC2=O)[C@H]2[C@H](C)O[C@H](C)CN42)C1	63 (≈ 30.6 µg/mL)	125 (≈ 60.8 µg/mL)	125 (≈ 60.8 µg/mL)	–
C[C@@H]1CN2c3c(cc4c(N5CC[C@H](N)C5)noc4c3F)CC3(C(=O)NC(=O)NC3=O)[C@H]2[C@H](C)O1	63 (≈ 29.8 µg/mL)	125 (≈ 59.1 µg/mL)	125 (≈ 59.1 µg/mL)	pIC50 [1]: 4.47
C[C@@H]1CN2c3c(cc4c(N5CCC[C@H](O)C5)noc4c3F)CC3(C(=O)NC(=O)NC3=O)[C@H]2[C@H](C)O1	16 (≈ 7.8 µg/mL)	–	94 (≈ 45.8 µg/mL)	–
C[C@@H]1CN2c3c(cc4c(N5CC[C@@H](O)C5)noc4c3F)CC3(C(=O)NC(=O)NC3=O)[C@H]2[C@H](C)N1C#N	–	–	> 125	–
C[C@@H]1CN2c3c(cc4c(N5C(=O)OC[C@@H]5C)noc4c3F)CC3(C(=O)NC(=O)NC3=O)[C@H]2[C@H](C)N1C#N	3.9 (≈ 1.99 µg/mL)	3.9 (≈ 1.99 µg/mL)	1 (≈ 0.511 µg/mL)	–
CO[C@H]1CCN(c2noc3c(F)c4c(cc23)CC2(C(=O)NC(=O)NC2=O)[C@H]2[C@H](C)O[C@H](C)CN42)C1	31 (≈ 15.1 µg/mL)	> 125	> 125	pIC50 [1]: 4.11
C[C@@H]1CN2c3c(cc4c(N5CC[C@H](O)C5)noc4c3F)CC3(C(=O)NC(=O)NC3=O)[C@H]2[C@H](C)N1C#N	7.8 (≈ 3.88 µg/mL)	> 125	–	pIC50 (DNA gyrase): 5.51; MIC50 [3]: 5.35 µM (≈ 2.66 µg/mL); MIC99 [3]: 10.3 µM (≈ 5.12 µg/mL); MIC50 [4]: 1.75 µM (≈ 0.871 µg/mL); MIC99 [4]: 5.05 µM (≈ 2.51 µg/mL)
C[C@@H]1CN2c3c(cc4c(OC[C@@H]5CCC(=O)O5)noc4c3F)CC3(C(=O)NC(=O)NC3=O)[C@H]2[C@H](C)O1	2 (≈ 1 µg/mL)	> 125	3.9 (≈ 1.96 µg/mL)	–
C[C@@H]1CN2c3c(cc4c(OC[C@H]5CCC(=O)N5)noc4c3F)CC3(C(=O)NC(=O)NC3=O)[C@H]2[C@H](C)O1	> 125	–	–	–
Cc1nnc(-c2noc3c(F)c4c(cc23)CC2(C(=O)NC(=O)NC2=O)[C@H]2[C@H](C)N(C#N)[C@H](C)CN42)o1	1.5 (≈ 0.742 µg/mL)	> 125	> 125	–
Cc1nnc(-c2noc3c(F)c4c(cc23)CC2(C(=O)NC(=O)NC2=O)[C@H]2[C@H](C)[C@@H](O)[C@H](C)CN42)o1	16 (≈ 7.75 µg/mL)	> 250	> 250	–
C[C@@H]1CN2c3c(cc4c(N5C(=O)OC[C@@H]5C)noc4c3F)CC3(C(=O)NC(=O)NC3=O)[C@H]2[C@H](C)N1CC#N	> 125	> 125	> 125	–
C[C@@H]1CN2c3c(cc4c(N5CC[C@H](CO)C5)noc4c3F)CC3(C(=O)NC(=O)NC3=O)[C@H]2[C@H](C)O1	16 (≈ 7.8 µg/mL)	> 125	> 125	pIC50 [1]: 4.74
C[C@@H]1CN2c3c(cc4c(OC[C@H]5CCC(=O)O5)noc4c3F)CC3(C(=O)NC(=O)NC3=O)[C@H]2[C@H](C)O1	3.9 (≈ 1.96 µg/mL)	> 250	> 250	–
C[C@@H]1CN2c3c(cc4c(N5CC[C@H](C#N)C5)noc4c3F)CC3(C(=O)NC(=O)NC3=O)[C@H]2[C@H](C)O1	4 (≈ 1.93 µg/mL)	31 (≈ 15 µg/mL)	> 125	pIC50 [1]: 5.00
C[C@@H]1CN2c3c(cc4c(N5C(=O)OC[C@@H]5C)noc4c3F)CC3(C(=O)NC(=O)NC3=O)[C@H]2[C@H](C)N1	> 125	31 (≈ 15.1 µg/mL)	63 (≈ 30.6 µg/mL)	–
C[C@@H]1CN2c3c(cc4c(OC[C@@H]5CCC(=O)N5C)noc4c3F)CC3(C(=O)NC(=O)NC3=O)[C@H]2[C@H](C)O1	3.9 (≈ 2.01 µg/mL)	63 (≈ 32.5 µg/mL)	63 (≈ 32.5 µg/mL)	–

Structure (SMILES)	MIC [2] [µM]	MIC (Escherichia coli) [µM]	MIC (Staphylococcus aureus) [µM]	also measured
C[C@@H]1CN2c3c(cc4c(N5CC[C@@](C)(O)C5)noc4c3F)CC3(C(=O)NC(=O)NC3=O)[C@H]2[C@H](C)O1	> 250	> 250	> 250	–
Cc1nnc(COc2noc3c(F)c4c(cc23)CC2(C(=O)NC(=O)NC2=O)[C@H]2[C@H](C)O[C@H](C)CN42)o1	63 (≈ 31.5 µg/mL)	> 125	> 125	–
C[C@@H]1CN2c3c(cc4c(OC[C@@H]5CNC(=O)C5)noc4c3F)CC3(C(=O)NC(=O)NC3=O)[C@H]2[C@H](C)O1	2 (≈ 1 µg/mL)	> 250	> 125	–
Cc1nnc(-c2noc3c(F)c4c(cc23)CC2(C(=O)NC(=O)NC2=O)[C@H]2[C@H](C)O[C@H](C)CN42)o1	0.45 (≈ 0.212 µg/mL)	31 (≈ 14.6 µg/mL)	–	–
C[C@H]1C[C@@H](C)[C@H]2N(C1)c1c(cc3c(OC[C@@H]4CCC(=O)N4)noc3c1F)CC21C(=O)NC(=O)NC1=O	16 (≈ 7.99 µg/mL)	63 (≈ 31.5 µg/mL)	7.8 (≈ 3.9 µg/mL)	–
C[C@@H]1CN2c3c(cc4c(N5C[C@H](O)[C@@H](O)C5)noc4c3F)CC3(C(=O)NC(=O)NC3=O)[C@H]2[C@H](C)O1	31 (≈ 15.2 µg/mL)	> 125	–	–
C[C@@H]1CN2c3c(cc4c(OC[C@@H]5COC(=O)N5)noc4c3F)CC3(C(=O)NC(=O)NC3=O)[C@H]2[C@H](C)O1	2 (≈ 1.01 µg/mL)	> 250	–	–
CC(=O)N1[C@H](C)CN2c3c(cc4c(N5C(=O)OC[C@@H]5C)noc4c3F)CC3(C(=O)NC(=O)NC3=O)[C@H]2[C@@H]1C	> 125	> 125	> 125	–
C[C@@H]1CN2c3c(cc4c(N5CC[C@@H](O)C5)noc4c3F)CC3(C(=O)NC(=O)NC3=O)[C@H]2[C@H](C)O1	3.9 (≈ 1.85 µg/mL)	–	–	–
C[C@@H]1CN2c3c(cc4c(N5CC[C@H](F)C5)noc4c3F)CC3(C(=O)NC(=O)NC3=O)[C@H]2[C@H](C)O1	4 (≈ 1.9 µg/mL)	31 (≈ 14.7 µg/mL)	2 (≈ 0.951 µg/mL)	–
C[C@@H]1CN2c3c(cc4c(OC[C@H]5COC(=O)N5)noc4c3F)CC3(C(=O)NC(=O)NC3=O)[C@H]2[C@H](C)O1	–	–	63 (≈ 31.7 µg/mL)	–
C[C@@H]1CN2c3c(cc4c(OC[C@@H]5CCC(=O)N5)noc4c3F)CC3(C(=O)NC(=O)NC3=O)[C@H]2[C@H](C)N1C#N	0.49 (≈ 0.257 µg/mL)	> 125	> 125	–
C[C@@H]1CN2c3c(cc4c(OC[C@@H]5CCC(=O)N5)noc4c3F)CC3(C(=O)NC(=O)NC3=O)[C@H]2[C@H](C)O1	1 (≈ 0.501 µg/mL)	> 125	> 125	pIC50 [1]: 5.59
C[C@@H]1CN2c3c(cc4c(N5C(=O)OC[C@@H]5C)noc4c3F)CC3(C(=O)NC(=O)NC3=O)[C@H]2[C@H](C)N1O	> 125	> 125	> 125	–
C[C@@H]1CN2c3c(cc4c(N5CC[C@H](C(=O)O)C5)noc4c3F)CC3(C(=O)NC(=O)NC3=O)[C@H]2[C@H](C)O1	> 125	> 125	> 125	–
C[C@@H]1CN2c3c(cc4c(OC[C@H]5CNC(=O)C5)noc4c3F)CC3(C(=O)NC(=O)NC3=O)[C@H]2[C@H](C)O1	–	63 (≈ 31.6 µg/mL)	31 (≈ 15.5 µg/mL)	–
C[C@@H]1CN2c3c(cc4c(N5C[C@@H](O)[C@@H](O)C5)noc4c3F)CC3(C(=O)NC(=O)NC3=O)[C@H]2[C@H](C)O1	16 (≈ 7.83 µg/mL)	–	–	–
C[C@@H]1CN2c3c(cc4c(N5CCC[C@@H](O)C5)noc4c3F)CC3(C(=O)NC(=O)NC3=O)[C@H]2[C@H](C)O1	10 (≈ 4.87 µg/mL)	> 125	–	–
COc1c(N2C[C@@H]3CCCN[C@@H]3C2)c(F)cc2c(=O)c(C(=O)O)cn(C3CC3)c12 [MOXIFLOXACIN]	0.17 (≈ 0.0682 µg/mL)	–	–	MIC50 [3]: 0.12 µM (≈ 0.0482 µg/mL); MIC99 [3]: 0.19 µM (≈ 0.0763 µg/mL); MIC50 [4]: 0.041 µM (≈ 0.0165 µg/mL); MIC99 [4]: 0.07 µM (≈ 0.0281 µg/mL)
CO[C@H]1/C=C/O[C@@]2(C)Oc3c(C)c(O)c4c(O)c(c(/C=N/N5CCN(C)CC5)c(O)c4c3C2=O)NC(=O)/C(C)=C\C=C\[C@H](C)[C@H](O)[C@@H](C)[C@@H](O)[C@@H](C)[C@H](OC(C)=O)[C@@H]1C [RIFAMPIN]	–	–	–	MIC50 [3]: 0.24 µM (≈ 0.198 µg/mL); MIC99 [3]: 0.041 µM (≈ 0.0337 µg/mL); MIC50 [4]: 0.021 µM (≈ 0.0173 µg/mL); MIC99 [4]: 0.037 µM (≈ 0.0304 µg/mL)
